According to US20190374533A1, “COMPOUNDS AND METHODS FOR INHIBITING NHE-MEDIATED ANTIPORT IN THE TREATMENT OF DISORDERS ASSOCIATED WITH FLUID RETENTION OR SALT OVERLOAD AND GASTROINTESTINAL TRACT DISORDERS” (Ardelyx, Inc., priority 2008, published 2019):
Counter-ions that a name gives are not always drawn.

Columns and labels:
[1] = test system: gastrointestinal motility; assay: Restoration of gastrointestinal motility in opioid induced constipation (loperamide); type: in vivo, mice; conditions: 15 mg/kg oral gavage, loperamide s.c., Evans Blue dye front after 30 minutes
[2] = test system: human duodenum monolayer culture; assay: Increased trans-epithelial resistance (TEER) in human organoid monolayer cell cultures; type: cell-based; conditions: 1 μM apical, baseline corrected
Experimental: Transwells were 0.4 μm pore polyester membrane 24-well Transwell inserts (Corning). Cultures were incubated at 37° C. in 5% CO2.
Human duodenum organoids were cultured in WENRNAS (Wnt, EGF, noggin, R-spondin1. Nicotinamide, A83-01, SB202190) and typically grown for 7-12 days before being used to plate monolayer cultures. On day 0, organoid cultures embedded in Matrigel were treated with TrypLE Express to break organoids into small pieces and/or single cells. The cells were resuspended to 0.5×10^6 cells/mL in SBM containing WENRAY (Wnt. EGF, noggin, R-spondin1, A83-01, Y-27632). Following this step, 200 μL of cell suspension was plated into the apical side of a 24-well Transwell (100,000 cells/well) and 600 μL of SBM with WENRAY was added to the basolateral side. Duodenum cells were differentiated with ENA (EGF, noggin, A83-01) on day 3. […]
Each human duodenum monolayer culture well was washed twice with fresh SBM on the apical side on day 6 or day 7 before dosing. […] Transepithelial electrical resistance (TEER) was used as a quantitative technique to measure of tight junction permeability. TEER values were recorded (MERS00002. Millipore) before dosing and 30 mins and 1 hr after dosing for all wells. […] Baseline corrected TEER for each example compound was compared to the average of the DMSO wells and expressed as a percent TEER of vehicle control.

[3] = target: T1, NHE3 (Homo sapiens, UniProt P48764); assay: Sustained inhibition of apical acid secretion in human organoid monolayer cell cultures (ileum); type: cell-based; conditions: 1 μM apical, dosed day 6, apical media pH day 8
T1 construct: due to the increase in NHE3 expression after differentiation; endogenous in cells; host or cells: human ileum / duodenum organoid-derived monolayers
T1 sequence (P48764 26-834): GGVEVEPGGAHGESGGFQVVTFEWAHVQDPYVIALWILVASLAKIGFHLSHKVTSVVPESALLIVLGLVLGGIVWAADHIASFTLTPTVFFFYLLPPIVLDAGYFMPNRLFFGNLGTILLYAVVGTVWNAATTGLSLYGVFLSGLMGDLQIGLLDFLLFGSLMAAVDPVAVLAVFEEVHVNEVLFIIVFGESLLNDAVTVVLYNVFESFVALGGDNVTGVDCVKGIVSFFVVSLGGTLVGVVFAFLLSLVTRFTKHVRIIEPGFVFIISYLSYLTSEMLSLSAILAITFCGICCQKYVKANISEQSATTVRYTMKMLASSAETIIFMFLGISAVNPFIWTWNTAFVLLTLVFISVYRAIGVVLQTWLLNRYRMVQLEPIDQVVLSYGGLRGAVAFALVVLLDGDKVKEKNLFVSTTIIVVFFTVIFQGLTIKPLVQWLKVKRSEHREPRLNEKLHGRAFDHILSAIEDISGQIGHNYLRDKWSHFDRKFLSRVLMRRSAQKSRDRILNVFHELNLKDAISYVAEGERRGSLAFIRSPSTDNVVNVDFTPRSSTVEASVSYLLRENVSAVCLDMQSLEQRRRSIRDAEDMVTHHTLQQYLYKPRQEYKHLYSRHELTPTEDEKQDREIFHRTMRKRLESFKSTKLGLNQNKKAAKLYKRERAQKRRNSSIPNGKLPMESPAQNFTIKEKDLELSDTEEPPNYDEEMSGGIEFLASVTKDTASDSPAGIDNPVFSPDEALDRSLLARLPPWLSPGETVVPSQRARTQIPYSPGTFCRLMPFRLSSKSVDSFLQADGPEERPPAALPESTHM
Experimental: Basal media (BM) consisted of advanced DMEM/F12 containing 10 mM HEPES (Invitrogen, 15630-080), 1:100 Glutamax (Invitrogen, 35050-061), and 1:100 penicillin/streptomycin (Invitrogen, 15140-122). […] Growth factors used included 50 ng per mL mouse EGF (Peprotech, 315-09), 100 ng per mL mouse noggin (Peprotech, 250-38), 500 ng per mL human R-spondin 1 (R&D, 4645-RS), 100 ng per mL mouse Wnt-3a (R&D, 1324-WN), 20 μM Y-27632 (Tocris, 1254), 10 mM nicotinamide (Sigma, N0636), 500 nM A83-01 (Tocris, 2939), 10 μM SB202190 (Tocris, 1264). Transwells were 0.4 μm pore polyester membrane 24-well Transwell inserts (Corning). Cultures were incubated at 37° C. in 5% CO2.
Human ileum organoids were cultured in WENRNAS (Wnt, EGF, noggin. R-spondin1. Nicotinamide. A83-01, SB202190) and typically grown for 7-12 days before being used to plate monolayer cultures. On day 0, organoid cultures embedded in Matrigel were treated with TrypLE Express to break organoids into small pieces and/or single cells. […]
Each human ileum monolayer culture well was washed twice with fresh SBM on the apical side on day 6 before compound dosing. […] On day 8, apical media pH was measured by pH electrode, to determine the ability of example compounds to produce sustained inhibition of NHE3 activity in a human monolayer culture system by preventing proton secretion into the apical compartment.

[4] = target: T1, NHE3; assay: Sustained inhibition of apical acid secretion in human organoid monolayer cell cultures (duodenum); type: cell-based; conditions: 1 μM apical
[5] = test system: absorption of sodium from the intestinal lumen; assay: Inhibition of intestinal sodium absorption in mice; type: in vivo, mouse; conditions: CD-1 mice, 15 mg/kg oral gavage twice daily for 3 days
[6] = day 3, normalized to dietary sodium intake

| % inhibition (ileum) [3] | % inhibition (duodenum) [4] | SMILES | % Restoration of Transit [1] | TEER at 30 minutes (% of Vehicle) ([2]; 30 mins after dosing) | TEER at 60 minues (% of Vehicle) ([2]; 1 hr after dosing) | Fecal fluid content (Δ from vehicle) ([5]; day 3) | Fecal Na Excretion (% of vehicle) [5, 6] | Urinary Na Excretion (% of vehicle) [5, 6] |
| --- | --- | --- | --- | --- | --- | --- | --- | --- |
| C (>70%) | C (>70%) | CN1Cc2c(Cl)cc(Cl)cc2[C@H](c2cccc(S(=O)(=O)NCCOCCOCCNC(=O)NCCCCNC(=O)NCCOCCOCCNS(=O)(=O)c3cccc([C@@H]4CN(C)Cc5c(Cl)cc(Cl)cc54)c3)c2)C1 (single isomer, unassigned) [Example 202, (S or R)—N,N′-(10,17-dioxo-3,6,21,24-tetraoxa-9,11,16,18-tetraazahexacosane-1,26-diyl)bis(3-((S)-6,8-dichloro-2-methyl-1,2,3,4-tetrahydroisoquinolin-4-yl)benzenesulfonamide) bis-hydrochloride salt] | C (>40%) | B (100-130%) | B (100-130%) | – | – | – |
| – | – | CN1Cc2c(Cl)cc(Cl)cc2[C@H](c2cccc(S(=O)(=O)NCCOCCOCCNC(=O)Nc3ccc(NC(=O)NCCOCCOCCNS(=O)(=O)c4cccc([C@@H]5CN(C)Cc6c(Cl)cc(Cl)cc65)c4)cc3)c2)C1 (single isomer, unassigned) [Example 203, (S or R)—N,N′-(2,2′-(2,2′-(2,2′-(1,4-phenylenebis(azanediyl))bis(oxomethylene)bis(azanediyl)bis(ethane-2,1-diyl))bis(oxy)bis(ethane-2,1-diyl))bis(oxy)bis(ethane-2,1-diyl))bis(3-((S or R)-6,8-dichloro-2-methyl-1,2,3,4-tetrahydroisoquinolin-4-yl)benzenesulfonamide) bis-hydrochloride salt] | – | – | – | C (>10) | C (>200%) | C (<50%) |
